Assay results from PubChem BioAssay (NCI).
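Each compound was tested at five concentrations against cells in 96-well plates for 48 hours. The concentration for full growth arrest is given as TGI.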

Tests used:
Test in all cases: NCI tumour cell line growth inhibition, 48 h
[1] = test system: 786-0 renal
[2] = test system: A498 renal
[3] = test system: A549 NSCLC
[4] = test system: ACHN renal
[5] = test system: CAKI-1 renal
[6] = test system: CCRF-CEM leukemia
[7] = test system: COLO 205 colon
[8] = test system: DU-145 prostate
[9] = test system: EKVX NSCLC
[10] = test system: HCC-2998 colon
[11] = test system: HCT-116 colon
[12] = test system: HCT-15 colon
[13] = test system: HL-60(TB) leukemia
[14] = test system: HOP-92 NSCLC
[15] = test system: IGROV1 ovarian
[16] = test system: KM12 colon
[17] = test system: LOX IMVI melanoma
[18] = test system: M14 melanoma
[19] = test system: MALME-3M melanoma
[20] = test system: MCF7 breast
[21] = test system: MDA-MB-231 breast
[22] = test system: MDA-MB-435
[23] = test system: MDA-N
[24] = test system: MOLT-4 leukemia
[25] = test system: NCI-H226 lung
[26] = test system: NCI-H23 lung
[27] = test system: NCI-H460 lung
[28] = test system: NCI-H522 lung
[29] = test system: NCI/ADR-RES ovarian
[30] = test system: OVCAR-3 ovarian
[31] = test system: OVCAR-4 ovarian
[32] = test system: OVCAR-5 ovarian
[33] = test system: OVCAR-8 ovarian
[34] = test system: PC-3 prostate
[35] = test system: RPMI-8226 leukemia
[36] = test system: RXF 393 renal
[37] = test system: SF-295 CNS
[38] = test system: SF-539 CNS
[39] = test system: SK-MEL-2 melanoma
[40] = test system: SK-MEL-28 melanoma
[41] = test system: SK-MEL-5 melanoma
[42] = test system: SK-OV-3 ovarian
[43] = test system: SN12C renal
[44] = test system: SNB-19 CNS
[45] = test system: SNB-75 CNS
[46] = test system: SR leukemia
[47] = test system: SW-620 colon
[48] = test system: TK-10 renal
[49] = test system: U251 CNS
[50] = test system: UACC-257 melanoma
[51] = test system: UACC-62 melanoma
[52] = test system: UO-31 renal
[53] = test system: BT-549 breast
[54] = test system: HOP-62 NSCLC
[55] = test system: HS 578T breast
[56] = test system: HT29 colon
[57] = test system: K-562 leukemia
[58] = test system: SF-268 CNS
[59] = test system: T-47D breast

CC(C)(C)OC(=O)C1CC[C@@H](CC(=O)Oc2ccc([N+](=O)[O-])cc2)N1 (some centres not stated)
TGI [1]: > 100 µM
TGI [2]: > 100 µM
TGI [3]: > 100 µM
TGI [4]: > 100 µM
TGI [5]: > 100 µM
TGI [6]: > 100 µM
TGI [7]: > 100 µM
TGI [8]: > 100 µM
TGI [9]: > 100 µM
TGI [10]: > 100 µM
TGI [11]: > 100 µM
TGI [12]: > 100 µM
TGI [13]: > 100 µM
TGI [14]: > 100 µM
TGI [15]: > 100 µM
TGI [16]: > 100 µM
TGI [17]: > 100 µM
TGI [18]: > 100 µM
TGI [19]: > 100 µM
TGI [20]: > 100 µM
TGI [21]: > 100 µM
TGI [22]: > 100 µM
TGI [23]: > 100 µM
TGI [24]: > 100 µM
TGI [25]: > 100 µM
TGI [26]: > 100 µM
TGI [27]: > 100 µM
TGI [28]: > 100 µM
TGI [29]: > 100 µM
TGI [30]: > 100 µM
TGI [31]: > 100 µM
TGI [32]: > 100 µM
TGI [33]: > 100 µM
TGI [34]: > 100 µM
TGI [35]: > 100 µM
TGI [36]: > 100 µM
TGI [37]: > 100 µM
TGI [38]: > 100 µM
TGI [39]: > 100 µM
TGI [40]: > 100 µM
TGI [41]: > 100 µM
TGI [42]: > 100 µM
TGI [43]: > 100 µM
TGI [44]: > 100 µM
TGI [45]: > 100 µM
TGI [46]: > 100 µM
TGI [47]: > 100 µM
TGI [48]: > 100 µM
TGI [49]: > 100 µM
TGI [50]: > 100 µM
TGI [51]: > 100 µM
TGI [52]: > 100 µM

CCOC(=O)c1ccc(Nc2nc3ccccc3nc2C(=O)OCC)cc1
TGI [1]: > 100 µM
TGI [3]: > 100 µM
TGI [4]: > 100 µM
TGI [53]: > 100 µM
TGI [5]: > 100 µM
TGI [6]: > 100 µM
TGI [7]: > 100 µM
TGI [8]: > 100 µM
TGI [9]: > 100 µM
TGI [10]: > 100 µM
TGI [11]: > 100 µM
TGI [12]: > 100 µM
TGI [13]: > 100 µM
TGI [54]: > 100 µM
TGI [14]: > 100 µM
TGI [55]: > 100 µM
TGI [56]: > 100 µM
TGI [15]: > 100 µM
TGI [57]: > 100 µM
TGI [16]: > 100 µM
TGI [18]: > 100 µM
TGI [19]: > 100 µM
TGI [20]: > 100 µM
TGI [21]: > 100 µM
TGI [22]: > 100 µM
TGI [23]: > 100 µM
TGI [24]: > 100 µM
TGI [26]: > 100 µM
TGI [27]: > 100 µM
TGI [28]: > 100 µM
TGI [29]: > 100 µM
TGI [30]: > 100 µM
TGI [31]: > 100 µM
TGI [32]: > 100 µM
TGI [33]: > 100 µM
TGI [35]: > 100 µM
TGI [58]: > 100 µM
TGI [38]: > 100 µM
TGI [39]: > 100 µM
TGI [40]: > 100 µM
TGI [41]: > 100 µM
TGI [42]: > 100 µM
TGI [43]: > 100 µM
TGI [44]: > 100 µM
TGI [45]: > 100 µM
TGI [46]: > 100 µM
TGI [59]: > 100 µM
TGI [48]: > 100 µM
TGI [49]: > 100 µM
TGI [51]: > 100 µM
TGI [52]: > 100 µM

CN1CC[C@]2(c3cccc(O)c3)CC(=O)/C(=C/c3ccc(Cl)c(Cl)c3)[C@@H]1C2
TGI [1]: 2.23 µM
TGI [2]: 3.69 µM
TGI [3]: 3.36 µM
TGI [4]: 2.38 µM
TGI [53]: 3.14 µM
TGI [5]: 2.32 µM
TGI [6]: 2.85 µM
TGI [7]: 2.96 µM
TGI [8]: 3.01 µM
TGI [9]: 3.03 µM
TGI [10]: 2.77 µM
TGI [11]: 2.47 µM
TGI [12]: 2.52 µM
TGI [13]: 0.464 µM
TGI [14]: 2.57 µM
TGI [55]: 6.59 µM
TGI [56]: 2.22 µM
TGI [15]: 3.72 µM
TGI [57]: 1.1 µM
TGI [16]: 2.06 µM
TGI [17]: 0.327 µM
TGI [18]: 3.08 µM
TGI [19]: 2.85 µM
TGI [20]: 9.41 µM
TGI [21]: 2.4 µM
TGI [22]: 1.4 µM
TGI [23]: 1.83 µM
TGI [24]: 0.71 µM
TGI [25]: 4.7 µM
TGI [26]: 4.33 µM
TGI [27]: 3.39 µM
TGI [29]: 6.76 µM
TGI [32]: 3.18 µM
TGI [33]: 4.35 µM
TGI [34]: 1.42 µM
TGI [35]: 0.901 µM
TGI [36]: 1.92 µM
TGI [58]: 3.66 µM
TGI [37]: 2.86 µM
TGI [38]: 4.52 µM
TGI [40]: 3.28 µM
TGI [41]: 3.1 µM
TGI [43]: 2.29 µM
TGI [44]: 3.48 µM
TGI [45]: 1.55 µM
TGI [46]: 10.3 µM
TGI [47]: 2.41 µM
TGI [48]: 3.48 µM
TGI [49]: 2.14 µM
TGI [50]: 2.93 µM
TGI [52]: 2.61 µM

CC(=O)NNC(=O)C1CCCCN1 (configuration not stated)
TGI [1]: > 100 µM
TGI [2]: > 100 µM
TGI [3]: > 100 µM
TGI [4]: > 100 µM
TGI [53]: > 100 µM
TGI [5]: > 100 µM
TGI [6]: > 100 µM
TGI [7]: > 100 µM
TGI [8]: > 100 µM
TGI [9]: > 100 µM
TGI [11]: > 100 µM
TGI [12]: > 100 µM
TGI [13]: > 100 µM
TGI [54]: > 100 µM
TGI [14]: > 100 µM
TGI [55]: > 100 µM
TGI [56]: > 100 µM
TGI [15]: > 100 µM
TGI [57]: > 100 µM
TGI [16]: > 100 µM
TGI [17]: > 100 µM
TGI [18]: > 100 µM
TGI [19]: > 100 µM
TGI [20]: > 100 µM
TGI [21]: > 100 µM
TGI [22]: > 100 µM
TGI [23]: > 100 µM
TGI [24]: > 100 µM
TGI [25]: > 100 µM
TGI [26]: > 100 µM
TGI [27]: > 100 µM
TGI [28]: > 100 µM
TGI [30]: > 100 µM
TGI [31]: > 100 µM
TGI [32]: > 100 µM
TGI [33]: > 100 µM
TGI [34]: > 100 µM
TGI [35]: > 100 µM
TGI [36]: > 100 µM
TGI [58]: > 100 µM
TGI [37]: > 100 µM
TGI [38]: > 100 µM
TGI [39]: > 100 µM
TGI [40]: > 100 µM
TGI [41]: > 100 µM
TGI [42]: > 100 µM
TGI [43]: > 100 µM
TGI [44]: > 100 µM
TGI [46]: > 100 µM
TGI [47]: > 100 µM
TGI [48]: > 100 µM
TGI [49]: > 100 µM
TGI [50]: > 100 µM
